# Test system: not given
# Experiment: not given
# Settings: clinical use; Olanow and Watkins 2007; cited from earlier work
row,SMILES,liver injury
1,Cc1ccc(C(=O)c2cc(O)c(O)c([N+](=O)[O-])c2)cc1 [tolcapone],"serious liver injury, including three deaths"

# Test system: not given
# Experiment: not given
# Settings: Russ, et al. 1999; cited from earlier work
row,SMILES,brain penetration
1,CCN(CC)C(=O)/C(C#N)=C/c1cc(O)c(O)c([N+](=O)[O-])c1 [entacapone],negligible
2,Cc1ccc(C(=O)c2cc(O)c(O)c([N+](=O)[O-])c2)cc1 [tolcapone],low but measurable

# Test system: not given
# Experiment: not given
# Settings: Nutt and Fellman 1984; cited from earlier work
row,SMILES,percentage of exogenously administered L-DOPA that reaches the brain [%]
1,"N[C@@H](Cc1ccc(O)c(O)c1)C(=O)O [L-DOPA, L-dihydroxyphenylalanine]",~1

# Biological target: T1, catechol-O-methyltransferase (COMT) (Homo sapiens, UniProt P21964)
# T1 construct: M51A variant) was expressed in HEK 293F cells
# T1 sequence (P21964 52-271 limits assumed): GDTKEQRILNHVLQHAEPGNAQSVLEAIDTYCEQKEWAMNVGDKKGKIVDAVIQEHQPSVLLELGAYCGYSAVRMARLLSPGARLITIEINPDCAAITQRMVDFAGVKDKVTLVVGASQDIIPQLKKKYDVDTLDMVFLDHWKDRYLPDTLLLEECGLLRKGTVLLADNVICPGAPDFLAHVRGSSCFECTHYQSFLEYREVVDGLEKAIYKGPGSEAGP
# Experiment: COMT inhibition assay (HTRF, production of SAH from SAM)
# Type: biochemical
# Settings: table does not say MB-COMT or S-COMT
# Summary of the method: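 Membranes from HEK293F cells expressing MB-COMT (M51A variant) incubated with 20 μM SAM and 1.5 μM dopamine plus compound (10 concentrations) for 40 min at 37 °C; S-COMT (Val158) at 0.15 ng/well used 100 μM dopamine, 15 min. SAH measured by HTRF against a standard curve; pIC50 from 4-parameter logistic fit.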
row,SMILES,Activity range (pIC50)
1,"CCc1ccc(CN2CCn3cc(O)c(=O)cc3C2C)cc1 (centres unmarked) [Example 122, 2-(4-ethylbenzyl)-7-hydroxy-1-methyl-1,2,3,4-tetrahydro-8H-pyrido[1,2-a]pyrazin-8-one]",+++ (three plus signs (+++) is associated with a pIC50 of above about 7)
2,"O=c1cc2n(cc1O)CCN(Cc1cccc3cccnc13)C2c1ccc(F)cc1 (centres unmarked) [Example 123, 1-(4-fluorophenyl)-7-hydroxy-2-(quinolin-8-ylmethyl)-1,2,3,4-tetrahydro-8H-pyrido[1,2-a]pyrazin-8-one]",+++ (three plus signs (+++) is associated with a pIC50 of above about 7)
3,"Cc1cccc(C)c1CN1CCn2cc(O)c(=O)cc2C1c1ccc(F)cc1 (centres unmarked) [Example 124, 2-(2,6-dimethylbenzyl)-1-(4-fluorophenyl)-7-hydroxy-1,2,3,4-tetrahydro-8H-pyrido[1,2-a]pyrazin-8-one]",+++ (three plus signs (+++) is associated with a pIC50 of above about 7)
4,"CCc1ccc(CN2CCn3cc(O)c(=O)cc3C2C2CCOCC2)cc1 (centres unmarked) [Example 125, 2-(4-ethylbenzyl)-7-hydroxy-1-(tetrahydro-2H-pyran-4-yl)-1,2,3,4-tetrahydro-8H-pyrido[1,2-a]pyrazin-8-one]",+++ (three plus signs (+++) is associated with a pIC50 of above about 7)
5,"CCc1ccc(CN2CCn3cc(O)c(=O)cc3C2c2cccc(-c3cccnc3)c2)cc1 (centres unmarked) [Example 126, 2-(4-ethylbenzyl)-7-hydroxy-1-[3-(pyridin-3-yl)phenyl]-1,2,3,4-tetrahydro-8H-pyrido[1,2-a]pyrazin-8-one]",+++ (three plus signs (+++) is associated with a pIC50 of above about 7)
6,"O=c1cc2n(cc1O)CC(c1ccccc1)N(Cc1ccccc1)C2 (centres unmarked) [Example 127, 2-benzyl-7-hydroxy-3-phenyl-1,2,3,4-tetrahydro-8H-pyrido[1,2-a]pyrazin-8-one]",+++ (three plus signs (+++) is associated with a pIC50 of above about 7)
7,"O=c1cc2n(cc1O)CC(Cc1ccccc1)N(Cc1ccccc1)C2 (centres unmarked) [Example 128, 2,3-dibenzyl-7-hydroxy-1,2,3,4-tetrahydro-8H-pyrido[1,2-a]pyrazin-8-one]",++ (two plus signs (++) is associated with a pIC50 of from about 6 to 7)
8,"O=c1cc2n(cc1O)CC(Cc1ccccc1)N(Cc1c(Cl)cccc1Cl)C2 (centres unmarked) [Example 129, 3-benzyl-2-(2,6-dichlorobenzyl)-7-hydroxy-1,2,3,4-tetrahydro-8H-pyrido[1,2-a]pyrazin-8-one]",++ (two plus signs (++) is associated with a pIC50 of from about 6 to 7)
9,"CC1Cn2cc(O)c(=O)cc2CN1Cc1ccc(OC(F)(F)F)cc1 (centres unmarked) [Example 130, 7-hydroxy-3-methyl-2-[4-(trifluoromethoxy)benzyl]-1,2,3,4-tetrahydro-8H-pyrido[1,2-a]pyrazin-8-one]",++ (two plus signs (++) is associated with a pIC50 of from about 6 to 7)
10,"CC1Cn2cc(O)c(=O)cc2CN1Cc1ccccc1 (centres unmarked) [Example 131, 2-benzyl-7-hydroxy-3-methyl-1,2,3,4-tetrahydro-8H-pyrido[1,2-a]pyrazin-8-one]",++ (two plus signs (++) is associated with a pIC50 of from about 6 to 7)
11,"O=c1cc2n(cc1O)CC(CCc1ccccc1)N(Cc1ccccc1)C2 (centres unmarked) [Example 132, 2-benzyl-7-hydroxy-3-(2-phenylethyl)-1,2,3,4-tetrahydro-8H-pyrido[1,2-a]pyrazin-8-one]",+++ (three plus signs (+++) is associated with a pIC50 of above about 7)
12,"O=c1c(O)cn2c(c1Cl)CN(Cc1c(F)cccc1Cl)CC2 [Example 133, 9-chloro-2-(2-chloro-6-fluorobenzyl)-7-hydroxy-1,2,3,4-tetrahydro-8H-pyrido[1,2-a]pyrazin-8-one]",+++ (three plus signs (+++) is associated with a pIC50 of above about 7)
13,"O=c1cc2n(c(F)c1O)CCN(Cc1ccccc1Cl)C2 [Example 134, 6-fluoro-7-hydroxy-2-[[2-chlorophenyl]methyl]-3,4-dihydro-1H-pyrido[1,2-a]pyrazin-8-one]",++ (two plus signs (++) is associated with a pIC50 of from about 6 to 7)
14,"O=c1cc2n(c(F)c1O)CCN(Cc1ccc(OC(F)(F)F)cc1)C2 [Example 135, 2-[(4-(trifluoromethoxy)phenyl)methyl]-6-fluoro-7-hydroxy-3,4-dihydro-1H-pyrido[1,2-a]pyrazin-8-one]",++ (two plus signs (++) is associated with a pIC50 of from about 6 to 7)
15,"CCc1ccc(CN2CCn3cc(O)c(=O)c(Cl)c3C2)cc1 [Example 136, 9-chloro-2-(4-ethylbenzyl)-7-hydroxy-1,2,3,4-tetrahydro-8H-pyrido[1,2-a]pyrazin-8-one]",+++ (three plus signs (+++) is associated with a pIC50 of above about 7)
16,"O=c1c(O)cn2c(c1Cl)CN(Cc1ccccc1Cl)CC2 [Example 137, 9-chloro-2-[(2-chlorophenyl)methyl]-7-hydroxy-3,4-dihydro-1H-pyrido[1,2-a]pyrazin-8-one]",+++ (three plus signs (+++) is associated with a pIC50 of above about 7)
17,"CCc1ccc(CN2CCn3cc(O)c(=O)c(Br)c3C2)cc1 [Example 138, 9-bromo-2-(4-ethylbenzyl)-7-hydroxy-1,2,3,4-tetrahydro-8H-pyrido[1,2-a]pyrazin-8-one]",+++ (three plus signs (+++) is associated with a pIC50 of above about 7)
18,"O=c1c(O)cn2c(c1Br)CN(Cc1ccccc1Cl)CC2 [Example 139, 9-bromo-2-[(2-chlorophenyl)methyl]-7-hydroxy-3,4-dihydro-1H-pyrido[1,2-a]pyrazin-8-one]",+++ (three plus signs (+++) is associated with a pIC50 of above about 7)
19,"O=c1c(O)cn2c(c1I)CN(Cc1ccccc1Cl)CC2 [Example 140, 2-[(2-chlorophenyl)methyl]-7-hydroxy-9-iodo-3,4-dihydro-1H-pyrido[1,2-a]pyrazin-8-one]",+ (a single plus (+) is associated with a pIC50 of from about 4.5 to 6)
20,"CCc1ccc(CN2CCn3cc(O)c(=O)c(C4CC4)c3C2)cc1 [Example 141, 9-cyclopropyl-2-(4-ethylbenzyl)-7-hydroxy-1,2,3,4-tetrahydro-8H-pyrido[1,2-a]pyrazin-8-one]",++ (two plus signs (++) is associated with a pIC50 of from about 6 to 7)
21,"O=c1c(O)cn2c(c1C1CC1)CN(Cc1ccccc1Cl)CC2 [Example 142, 2-[(2-chlorophenyl)methyl]-9-cyclopropyl-7-hydroxy-3,4-dihydro-1H-pyrido[1,2-a]pyrazin-8-one]",+++ (three plus signs (+++) is associated with a pIC50 of above about 7)

# Biological target: T2, aromatic amino acid decarboxylase (AAAD) (Homo sapiens, UniProt P20711)
# T2 sequence (P20711 1-480): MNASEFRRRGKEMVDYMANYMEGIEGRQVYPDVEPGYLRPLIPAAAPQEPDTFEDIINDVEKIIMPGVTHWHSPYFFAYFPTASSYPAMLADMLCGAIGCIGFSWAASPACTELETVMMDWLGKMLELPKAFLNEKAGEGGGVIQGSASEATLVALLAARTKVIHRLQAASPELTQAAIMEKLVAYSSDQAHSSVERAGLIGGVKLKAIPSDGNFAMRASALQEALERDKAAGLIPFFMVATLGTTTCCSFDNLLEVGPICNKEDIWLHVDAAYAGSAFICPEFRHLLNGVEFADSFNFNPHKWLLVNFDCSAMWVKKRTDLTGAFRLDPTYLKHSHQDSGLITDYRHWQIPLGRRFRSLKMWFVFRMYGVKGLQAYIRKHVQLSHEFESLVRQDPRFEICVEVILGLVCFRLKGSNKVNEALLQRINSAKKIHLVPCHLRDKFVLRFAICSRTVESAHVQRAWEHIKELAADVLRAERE
# Experiment: not given
# Settings: given with L-DOPA; Nutt, Woodward et al. 1985; cited from earlier work
row,SMILES,reduction of the efficacious L-DOPA dose
1,C[C@@](Cc1ccc(O)c(O)c1)(NN)C(=O)O [Carbidopa],60-80%

# From patent US10934283B2, “COMT inhibiting methods and compositions” (LIEBER INSTITUTE FOR BRAIN DEVELOPMENT, priority 2015, dated 2021)
